{"source": "patent US8206920B2", "about": "“Diagnostic assay for the specific treatment of acute myeloid leukemia” (priority 2007, dated 2012)", "key": {"ND13 MN1 cells": {"tested_on": "ND13 MN1 cells", "test": "Proliferation of cell cultures of transduced ND13 cells expressing MN1 with ATRA (FIG. 3)", "assay_type": "cell-based, mouse", "conditions": "0.1 μM or 1 μM ATRA, up to 96 h", "excerpt": "(§1) The expression vector encoding GFP contained to the GFP gene under control of the spleen focus-forming virus promoter, integrated into the vector pSF91 (described in detail in Hildinger et al., J. Virol. 73, 4083-4089 (1999)). The MN1 expression vector contained the human MN1 gene under the control of the same promoter in the same vector backbone."}, "ND13 GFP cells": {"tested_on": "ND13 GFP cells", "test": "Proliferation of cell cultures of transduced ND13 cells expressing GFP with ATRA (FIG. 3)", "assay_type": "cell-based, mouse", "conditions": "0.1 μM or 1 μM ATRA, p=0.026 at 24 hours, p<0.001 at 48, 72 and 96 h", "excerpt": "as §1"}}}
{"smiles": "CC1=C(/C=C/C(C)=C/C=C/C(C)=C/C(=O)O)C(C)(C)CCC1", "note": "[ATRA, all-trans retinoic acid]", "values": [{"measurement": "proliferation (cell numbers)", "setting": "ND13 MN1 cells", "value": "no significant reduction of proliferation"}, {"measurement": "proliferation (cell numbers)", "setting": "ND13 GFP cells", "value": "significant reduction of proliferation"}]}
